Assay results: patent US8536202B2, “Triazole-substituted anthranilamides as pesticides” (Bayer Cropscience AG, priority 2010, dated 2013)
Where two headings read alike, the source gives them in different places.

How the values were obtained:
[1] = system: green peach aphid (Myzus persicae); test: Myzus test (MYZUPE spray treatment), Use Example 4; type: in vivo; settings: 144 h, after 6 days; for pest or weed control at 100 g/ha: read-out: activity in %
Experimental: Solvents: 78 parts by weight of acetone • • 1.5 parts by weight of dimethylformamide
Emulsifier: 0.5 part by weight of alkylaryl polyglycol ether
An appropriate preparation of active compound is prepared by mixing 1 part by weight of active compound with the stated amounts of solvents and emulsifier and diluting the concentrate with emulsifier-containing water to the desired concentration.
Leaf discs of Chinese cabbage (Brassica pekinensis) infested by all stages of the green peach aphid (Myzus persicae) are sprayed with a preparation of active compound at the desired concentration.
After 6 days, the activity in % is ascertained. Here, 100% means that all of the aphids have been killed; 0% means that no aphids have been killed.

[2] = system: larvae of the mustard beetle (Phaedon cochleariae); test: Phaedon test (PHAECO spray treatment); type: in vivo; settings: 168 h, after 7 days; for pest or weed control at 100 g/ha: read-out: activity in %
Summary of the method: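 Compound dissolved in acetone/dimethylformamide with alkylaryl polyglycol ether emulsifier, then diluted with emulsifier-containing water to test concentration for spray treatment of Phaedon cochleariae larvae. Activity scored after 7 days as % larvae killed (100% = all dead, 0% = none).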

[3] = system: caterpillars of the armyworm (Spodoptera frugiperda); test: Spodoptera frugiperda test (SPODFR spray treatment); type: in vivo; settings: 168 h, after 7 days; for pest or weed control at 100 g/ha: read-out: activity in %
Summary of the method: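 Maize leaf discs sprayed with compound diluted in emulsifier-containing water (acetone/DMF solvent, alkylaryl polyglycol ether emulsifier), dried, then infested with armyworm caterpillars. Kill scored after 7 days as % mortality, 100% = all caterpillars dead, 0% = none.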

[4] = log P determination by HPLC on reversed-phase columns (EEC Directive 79/831 Annex V.A8); type: physicochemical; settings: pH 2.7
Summary of the method: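 log P from reversed-phase LC-MS retention at pH 2.7, 0.1% formic acid water/acetonitrile gradient 10–95% acetonitrile. Calibrated against C3–C16 unbranched alkan-2-ones, interpolating linearly between adjacent alkanones.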

[5] = reversed-phase C18 HPLC column, HPLC on reversed-phase columns (C 18), EEC Directive 79/831 Annex V.A8, read-out: logP

CC(C)NC(=O)c1cc(Cl)cc(Cl)c1NC(=O)c1cc(Cn2ncc(C(F)(F)F)n2)nn1-c1ncccc1Cl [Example 150]
pest or weed control at 100 g/ha [1]: 90% | pest or weed control at 100 g/ha [2]: 100% | pest or weed control at 100 g/ha [3]: 100% | chromatographic logP [4]: 3.41

Cc1cc(I)cc(C(N)=O)c1NC(=O)c1cc(Cn2ncc(C(F)(F)F)n2)nn1-c1ncccc1Cl [Example 156]
pest or weed control at 100 g/ha [1]: 100% | pest or weed control at 100 g/ha [2]: 100% | pest or weed control at 100 g/ha [3]: 100% | chromatographic logP [4]: 2.89

CNC(=O)c1cc(I)cc(C)c1NC(=O)c1cc(Cn2ncc(C(F)(F)F)n2)nn1-c1ncccc1Cl [Example 157]
pest or weed control at 100 g/ha [1]: 100% | pest or weed control at 100 g/ha [2]: 100% | pest or weed control at 100 g/ha [3]: 100% | chromatographic logP [4]: 3.26

Cc1cc(I)cc(C(=O)NCC#N)c1NC(=O)c1cc(Cn2ncc(C(F)(F)F)n2)nn1-c1ncccc1Cl [Example 165]
pest or weed control at 100 g/ha [1]: 100% | pest or weed control at 100 g/ha [2]: 100% | pest or weed control at 100 g/ha [3]: 100% | chromatographic logP [4]: 3.11

CSC[C@H](C)NC(=O)c1cc(I)cc(C)c1NC(=O)c1cc(Cn2ncc(C(F)(F)F)n2)nn1-c1ncccc1Cl [Example 166]
pest or weed control at 100 g/ha [1]: 100% | pest or weed control at 100 g/ha [2]: 100% | pest or weed control at 100 g/ha [3]: 100% | chromatographic logP [4]: 3.98

Cc1cc(F)cc(C(=O)NC(C)C)c1NC(=O)c1cc(Cn2ncc(C(F)(F)F)n2)nn1-c1ncccc1Cl [Example 170]
pest or weed control at 100 g/ha [1]: 100% | pest or weed control at 100 g/ha [2]: 100% | pest or weed control at 100 g/ha [3]: 100% | chromatographic logP [4]: 3.08

CNC(=O)c1cc(C#N)cc(C)c1NC(=O)c1cc(Cn2cc(C(F)(F)F)nn2)nn1-c1ncccc1Cl [Example 177]
pest or weed control at 100 g/ha [1]: 100% | pest or weed control at 100 g/ha [2]: 100% | pest or weed control at 100 g/ha [3]: 100% | chromatographic logP [4]: 2.28

Cc1cc(C#N)cc(C(=O)NC(C)C2CC2)c1NC(=O)c1cc(Cn2cc(C(F)(F)F)nn2)nn1-c1ncccc1Cl (stereo not drawn) [Example 178]
pest or weed control at 100 g/ha [1]: 100% | pest or weed control at 100 g/ha [2]: 100% | pest or weed control at 100 g/ha [3]: 100% | chromatographic logP [4]: 2.95

CCNC(=O)c1cc(C#N)cc(C)c1NC(=O)c1cc(Cn2cc(C(F)(F)F)nn2)nn1-c1ncccc1Cl [Example 180]
pest or weed control at 20 g/ha [1]: 100% | pest or weed control at 500 g/ha ([2]; 500 g/ha): 100% | pest or weed control at 100 g/ha [3]: 100% | chromatographic logP [4]: 2.49

Cc1cc(C#N)cc(C(=O)NC(C)(C)C)c1NC(=O)c1cc(Cn2cc(C(F)(F)F)nn2)nn1-c1ncccc1Cl [Example 182]
pest or weed control at 100 g/ha [1]: 100% | pest or weed control at 100 g/ha [2]: 100% | pest or weed control at 100 g/ha [3]: 100% | chromatographic logP [4]: 2.97

Cc1cc(C#N)cc(C(N)=O)c1NC(=O)c1cc(Cn2cc(C(F)(F)F)nn2)nn1-c1ncccc1Cl [Example 184]
pest or weed control at 20 g/ha [1]: 100% | pest or weed control at 100 g/ha [2]: 100% | pest or weed control at 100 g/ha [3]: 100% | chromatographic logP [4]: 2.12

Cc1cc(C#N)cc(C(=O)NCC2CC2)c1NC(=O)c1cc(Cn2cc(C(F)(F)F)nn2)nn1-c1ncccc1Cl [Example 185]
pest or weed control at 100 g/ha [1]: 90% | pest or weed control at 100 g/ha [2]: 100% | pest or weed control at 100 g/ha [3]: 100% | chromatographic logP [4]: 2.81

CNC(=O)c1cc(Cl)cc(C)c1NC(=O)c1cc(Cn2cc(C(F)(F)F)nn2)nn1-c1ncccc1Cl [Example 187]
pest or weed control at 100 g/ha [1]: 100% | pest or weed control at 100 g/ha [2]: 100% | pest or weed control at 100 g/ha [3]: 100% | chromatographic logP [4]: 2.6

CCNC(=O)c1cc(Cl)cc(C)c1NC(=O)c1cc(Cn2cc(C(F)(F)F)nn2)nn1-c1ncccc1Cl [Example 189]
pest or weed control at 100 g/ha [1]: 80% | pest or weed control at 100 g/ha [2]: 100% | pest or weed control at 100 g/ha [3]: 100% | chromatographic logP [4]: 2.9

Cc1cc(Cl)cc(C(N)=O)c1NC(=O)c1cc(Cn2cc(C(F)(F)F)nn2)nn1-c1ncccc1Cl [Example 192]
pest or weed control at 100 g/ha [1]: 100% | pest or weed control at 100 g/ha [2]: 100% | pest or weed control at 100 g/ha [3]: 100% | chromatographic logP [4]: 2.44

Cc1cc(Cl)cc(C(=O)NC(C)C2CC2)c1NC(=O)c1cc(Cn2cc(C(F)(F)F)nn2)nn1-c1ncccc1Cl (stereo not drawn) [Example 193]
pest or weed control at 100 g/ha [1]: 100% | pest or weed control at 100 g/ha [2]: 100% | pest or weed control at 100 g/ha [3]: 100% | chromatographic logP [4]: 3.34

CSC[C@H](C)NC(=O)c1cc(Cl)cc(C)c1NC(=O)c1cc(Cn2cc(C(F)(F)F)nn2)nn1-c1ncccc1Cl [Example 194]
pest or weed control at 100 g/ha [1]: 100% | pest or weed control at 100 g/ha [2]: 100% | pest or weed control at 100 g/ha [3]: 100% | chromatographic logP [4]: 3.35

Cc1cc(Cl)cc(C(=O)NCC#N)c1NC(=O)c1cc(Cn2cc(C(F)(F)F)nn2)nn1-c1ncccc1Cl [Example 196]
pest or weed control at 100 g/ha [1]: 100% | pest or weed control at 100 g/ha [2]: 100% | pest or weed control at 100 g/ha [3]: 100% | chromatographic logP [4]: 2.61

CNC(=O)c1cc(Cl)cc(Cl)c1NC(=O)c1cc(Cn2cc(C(F)(F)F)nn2)nn1-c1ncccc1Cl [Example 197]
pest or weed control at 100 g/ha [1]: 90% | pest or weed control at 100 g/ha [2]: 100% | pest or weed control at 100 g/ha [3]: 100% | chromatographic logP [4]: 2.59

CC(C)(C)NC(=O)c1cc(Cl)cc(Cl)c1NC(=O)c1cc(Cn2cc(C(F)(F)F)nn2)nn1-c1ncccc1Cl [Example 201]
pest or weed control at 100 g/ha [1]: 100% | pest or weed control at 100 g/ha [2]: 100% | pest or weed control at 100 g/ha [3]: 100% | chromatographic logP [4]: 3.42

NC(=O)c1cc(Cl)cc(Cl)c1NC(=O)c1cc(Cn2cc(C(F)(F)F)nn2)nn1-c1ncccc1Cl [Example 203]
pest or weed control at 100 g/ha [1]: 100% | pest or weed control at 100 g/ha [2]: 100% | pest or weed control at 100 g/ha [3]: 100% | chromatographic logP [4]: 2.43

CSC[C@H](C)NC(=O)c1cc(I)cc(C)c1NC(=O)c1cc(Cn2cc(C(F)(F)F)nn2)nn1-c1ncccc1Cl [Example 212]
pest or weed control at 100 g/ha [1]: 100% | pest or weed control at 100 g/ha [2]: 100% | pest or weed control at 100 g/ha [3]: 100% | chromatographic logP [4]: 3.59

Cc1cc(I)cc(C(N)=O)c1NC(=O)c1cc(Cn2cc(C(F)(F)F)nn2)nn1-c1ncccc1Cl [Example 213]
pest or weed control at 100 g/ha [1]: 100% | pest or weed control at 100 g/ha [2]: 100% | pest or weed control at 100 g/ha [3]: 100% | chromatographic logP [4]: 2.64

Cc1cc(I)cc(C(=O)NCC#N)c1NC(=O)c1cc(Cn2cc(C(F)(F)F)nn2)nn1-c1ncccc1Cl [Example 215]
pest or weed control at 100 g/ha [1]: 90% | pest or weed control at 100 g/ha [2]: 100% | pest or weed control at 100 g/ha [3]: 100% | chromatographic logP [4]: 2.82

CNC(=O)c1cc(C#N)cc(C)c1NC(=O)c1cc(Cn2cc(C(F)(C(F)(F)F)C(F)(F)F)nn2)nn1-c1ncccc1Cl [Example 217]
pest or weed control at 100 g/ha [1]: 100% | pest or weed control at 100 g/ha [2]: 100% | pest or weed control at 100 g/ha [3]: 100% | chromatographic logP [4]: 3.03

Cc1cc(C#N)cc(C(=O)NC(C)C)c1NC(=O)c1cc(Cn2cc(C(F)(C(F)(F)F)C(F)(F)F)nn2)nn1-c1ncccc1Cl [Example 219]
pest or weed control at 100 g/ha [1]: 80% | pest or weed control at 100 g/ha [2]: 100% | pest or weed control at 100 g/ha [3]: 100% | chromatographic logP [4, 5]: 3.44

Cc1cc(C#N)cc(C(=O)NC(C)(C)C)c1NC(=O)c1cc(Cn2cc(C(F)(C(F)(F)F)C(F)(F)F)nn2)nn1-c1ncccc1Cl [Example 220]
pest or weed control at 100 g/ha [1]: 100% | pest or weed control at 100 g/ha [2]: 100% | pest or weed control at 20 g/ha ([3]; 20 g/ha): 100% | chromatographic logP [4, 5]: 3.75
